Data reported in US20090312356A1, “NICOTINIC AGONISTS SELECTIVE FOR THE ALPHA7 RECEPTOR SUBTYPE, THE PROCESS FOR THE PREPARATION THEREOF AND PHARMACEUTICAL CO[…]” (priority 2006, published 2009).

Experiments:
human α7 (hα7) receptors = biological target: T1, human α7 (hα7) receptors (Homo sapiens, UniProt P36544); test: whole cell patch-clamp electrophysiological recordings, hα7-expressing GH4C1 cells; assay type: cell-based; conditions: 50 nM
T1 construct: expressed in transfected cells
T1 sequence (P36544 23-502): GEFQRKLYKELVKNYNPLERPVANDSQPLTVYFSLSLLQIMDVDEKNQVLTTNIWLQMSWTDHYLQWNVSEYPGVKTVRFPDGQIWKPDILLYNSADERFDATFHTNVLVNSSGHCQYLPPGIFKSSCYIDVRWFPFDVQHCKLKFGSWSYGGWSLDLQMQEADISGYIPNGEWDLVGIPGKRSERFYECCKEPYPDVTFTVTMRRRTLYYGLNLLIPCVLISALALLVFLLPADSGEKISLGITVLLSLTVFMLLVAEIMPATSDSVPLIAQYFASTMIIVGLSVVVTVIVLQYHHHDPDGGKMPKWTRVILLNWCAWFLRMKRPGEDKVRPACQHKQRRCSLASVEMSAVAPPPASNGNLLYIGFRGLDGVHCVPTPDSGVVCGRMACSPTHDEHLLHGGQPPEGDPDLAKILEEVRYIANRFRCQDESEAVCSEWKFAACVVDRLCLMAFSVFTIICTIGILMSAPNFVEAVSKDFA
Experimental: α7 Subtype: The human α7 (hα7) receptors were stably expressed in transfected GH4C1 and grown in the presence of geneticin (G418 sulfate, 500 μg/mL) as previously described.^31

melting point | SMILES | effect on acetylcholine-induced hα7 current (human α7 (hα7) receptors)
 | CCN1C[C@]2(COC(=O)c3ccccc3N3C(=O)C[C@H](C)C3=O)CC[C@H](OC)[C@@]34[C@@H]5C[C@H]6[C@H](OC)[C@@H]5[C@](O)(C[C@@H]6OC)[C@@](O)([C@@H](OC)[C@H]23)[C@@H]14 [methyllycaconitine] | blocked
> 50 °C | c1ccc(COC2=NOC3(C2)CN2CCC3CC2)cc1 (racemic) | 
203 to 207 °C | BrC1=NN(c2ccccc2)C2(C1)CN1CCC2CC1 (racemic) | 
182 to 183 °C | CN1OC2(CC1=O)CN1CCC2CC1 (racemic) | 
